Reference: ChEMBL document CHEMBL1145531, “Cyclopentanone ring-cleaved pleuromutilin derivatives” (2007)
Values after ≈ are worked out from the molar mass of the structure shown.

Columns and labels:
Streptococcus pneumoniae = experiment: Antibacterial activity against Streptococcus pneumoniae A9585 after 24 hrs; format: functional; details: A9585, 24 h
Staphylococcus aureus = experiment: Antibacterial activity against Staphylococcus aureus A15090 after 24 hrs; format: functional; details: A15090, 24 h

Row | Structure (SMILES) | MIC (Streptococcus pneumoniae) | MIC (Staphylococcus aureus)
1 | C=C[C@]1(C)C[C@@H](OC(=O)CSc2cccc(N)c2)[C@@]2(C)C(=O)[C@](CCC(=O)NCC(=O)O)(CCC2C)[C@@H](C)[C@@H]1O (stereo not given in full) | 2 µg/mL (≈ 3.48 µM) | 8 µg/mL (≈ 13.9 µM)
2 | C=C[C@]1(C)C[C@@H](OC(=O)CO)[C@@]2(C)C(=O)[C@](CCC(=O)NCC)(CCC2C)[C@@H](C)[C@@H]1O (stereo not given in full) | > 64 µg/mL | > 128 µg/mL
3 | C=C[C@]1(C)C[C@@H](OC(=O)CSc2cc(C)nc(C)c2)[C@@]2(C)C(=O)[C@](CCC(=O)N(CC)CC)(CCC2C)[C@@H](C)[C@@H]1O (stereo not given in full) | 4 µg/mL (≈ 6.82 µM) | 32 µg/mL (≈ 54.5 µM)
4 | C=C[C@]1(C)C[C@@H](OC(=O)CSc2cccc(N)c2)[C@@]2(C)C(=O)[C@](CCC)(CCC2C)[C@@H](C)[C@@H]1O (stereo not given in full) | 8 µg/mL (≈ 16.4 µM) | 16 µg/mL (≈ 32.8 µM)
5 | C=C[C@]1(C)C[C@@H](OC(=O)CO)[C@@]2(C)C(=O)[C@](CCNC(=O)OCC)(CCC2C)[C@@H](C)[C@@H]1O (stereo not given in full) | 0.25 µg/mL (≈ 0.551 µM) | 16 µg/mL (≈ 35.3 µM)
6 | C=C[C@]1(C)C[C@@H](OC(=O)CSc2cccc(N)c2)[C@@]2(C)C(=O)[C@](CCC(=O)OCC)(CCC2C)[C@@H](C)[C@@H]1O (stereo not given in full) | 1 µg/mL (≈ 1.83 µM) | 1 µg/mL (≈ 1.83 µM)
7 | C=C[C@]1(C)C[C@@H](OC(=O)CSc2cccc(N)c2)[C@@]2(C)C(=O)[C@](CCC(=O)N(CC)CC)(CCC2C)[C@@H](C)[C@@H]1O (stereo not given in full) | 4 µg/mL (≈ 6.98 µM) | 32 µg/mL (≈ 55.9 µM)
8 | C=C[C@]1(C)C[C@@H](OC(=O)CSc2cccc(N)c2)[C@@]2(C)C(=O)[C@](CCC(=O)O)(CCC2C)[C@@H](C)[C@@H]1O (stereo not given in full) | 0.125 µg/mL (≈ 0.241 µM) | 0.25 µg/mL (≈ 0.483 µM)
9 | C=C[C@]1(C)C[C@@H](OC(=O)CO)[C@@]2(C)C(=O)[C@](CCC(=O)O)(CCC2C)[C@@H](C)[C@@H]1O (stereo not given in full) | 8 µg/mL (≈ 19.5 µM) | 8 µg/mL (≈ 19.5 µM)
10 | C=C[C@]1(C)C[C@@H](OC(=O)CSc2ccccc2)[C@@]2(C)C(=O)[C@](CCC(=O)O)(CCC2C)[C@@H](C)[C@@H]1O (stereo not given in full) | > 64 µg/mL | > 128 µg/mL
11 | C=C[C@]1(C)C[C@@H](OC(=O)CSc2ccccn2)[C@@]2(C)C(=O)[C@](CCC(=O)O)(CCC2C)[C@@H](C)[C@@H]1O (stereo not given in full) | 8 µg/mL (≈ 15.9 µM) | 8 µg/mL (≈ 15.9 µM)
12 | C=C[C@]1(C)C[C@@H](OC(=O)CSc2nnc(N)[nH]2)[C@@]2(C)C(=O)[C@](CCC(=O)O)(CCC2C)[C@@H](C)[C@@H]1O (stereo not given in full) | > 64 µg/mL | > 128 µg/mL
13 | C=C[C@]1(C)C[C@@H](OC(=O)CO)[C@@]2(C)C(=O)[C@](CCCNC(=O)c3ccno3)(CCC2C)[C@@H](C)[C@@H]1O (stereo not given in full) | 2 µg/mL (≈ 4.08 µM) | 32 µg/mL (≈ 65.2 µM)
14 | C=C[C@]1(C)C[C@@H](OC(=O)CSc2ccncc2)[C@@]2(C)C(=O)[C@](CCC(=O)OCC)(CCC2C)[C@@H](C)[C@@H]1O (stereo not given in full) | 8 µg/mL (≈ 15 µM) | 8 µg/mL (≈ 15 µM)
15 | C=C[C@]1(C)C[C@@H](OC(=O)CO)[C@@]2(C)C(=O)[C@](CCC(=O)N(CC)CC)(CCC2C)[C@@H](C)[C@@H]1O (stereo not given in full) | > 64 µg/mL | > 128 µg/mL
16 | C=C[C@]1(C)C[C@@H](OC(=O)CSc2ccccn2)[C@@]2(C)C(=O)[C@](CCC(=O)OCC)(CCC2C)[C@@H](C)[C@@H]1O (stereo not given in full) | 1 µg/mL (≈ 1.88 µM) | 1 µg/mL (≈ 1.88 µM)
17 | C=C[C@]1(C)C[C@@H](OC(=O)CO)[C@@]2(C)C(=O)[C@](CCC(N)=O)(CCC2C)[C@@H](C)[C@@H]1O (stereo not given in full) | 64 µg/mL (≈ 156 µM) | 128 µg/mL (≈ 313 µM)
18 | C=C[C@]1(C)C[C@@H](OC(=O)CO)[C@@]2(C)C(=O)[C@](CCN)(CCC2C)[C@@H](C)[C@@H]1O (stereo not given in full) | > 64 µg/mL | > 128 µg/mL
19 | C=C[C@]1(C)C[C@@H](OC(=O)CO)[C@@]2(C)C(=O)[C@](CCCO)(CCC2C)[C@@H](C)[C@@H]1O (stereo not given in full) | > 64 µg/mL | > 128 µg/mL
20 | C=C[C@]1(C)C[C@@H](OC(=O)CSc2ccncc2)[C@@]2(C)C(=O)[C@](CCC(=O)O)(CCC2C)[C@@H](C)[C@@H]1O (stereo not given in full) | 64 µg/mL (≈ 127 µM) | 128 µg/mL (≈ 254 µM)
21 | C=C[C@]1(C)C[C@@H](OC(=O)CSc2cccc(N)c2)[C@@]2(C)C(=O)[C@](CCC(=O)NCC(=O)OC(C)(C)C)(CCC2C)[C@@H](C)[C@@H]1O (stereo not given in full) | 0.5 µg/mL (≈ 0.793 µM) | 4 µg/mL (≈ 6.34 µM)
22 | C=C[C@]1(C)C[C@@H](OC(=O)CSc2ccccc2C(=O)O)[C@@]2(C)C(=O)[C@](CCC(=O)N(CC)CC)(CCC2C)[C@@H](C)[C@@H]1O (stereo not given in full) | 4 µg/mL (≈ 6.65 µM) | 32 µg/mL (≈ 53.2 µM)
23 | C=C[C@]1(C)C[C@@H](OC(=O)CSc2ccccc2O)[C@@]2(C)C(=O)[C@](CCC(=O)O)(CCC2C)[C@@H](C)[C@@H]1O (stereo not given in full) | 4 µg/mL (≈ 7.71 µM) | 8 µg/mL (≈ 15.4 µM)
24 | C=C[C@]1(C)C[C@@H](OC(=O)CO)[C@@]2(C)C(=O)[C@](CCNC(=O)OCc3ccccc3)(CCC2C)[C@@H](C)[C@@H]1O (stereo not given in full) | 0.25 µg/mL (≈ 0.485 µM) | 16 µg/mL (≈ 31 µM)
25 | C=C[C@]1(C)C[C@@H](OC(=O)CO)[C@]2(C)[C@H](C)CC[C@]3(CCC(=O)[C@@H]32)[C@@H](C)[C@@H]1O [PLEUROMUTILIN] | 0.5 µg/mL (≈ 1.32 µM) | 0.5 µg/mL (≈ 1.32 µM)
